“Also recorded” adds a separate entry of the source.
Tests used:
[1] = tested on: gene expression in PC9 cells; assay: RNA-Seq gene expression in PC9 cells
Description: RNA was isolated from untreated RT112 cells and RT112 cells treated with 1 μM BGJ398, 100 nM THZ1, or combination treatment with THZ1 plus BGJ398, and similarly, untreated PC9 cells and PC9 cells treated with 1 μM erlotinib, 100 nM THZ1, or THZ1 plus erlotinib. Both cell lines were harvested at two time-points: following one day or seven days of treatment. Cell number was determined and total RNA was isolated using the RNeasy micro kit (Qiagen). Ambion® ERCC RNA Spike-In Mix (Life technology) was added to total RNA. cDNA libraries were prepared using the NEBNext® Ultra™ RNA Library Prep Kit for Illumina (New England Biolabs) according to the manufacturer's instructions. Library integrity was assessed on an Agilent 2100 Bioanalyzer (Agilent). Sequencing was performed on the Hiseq 2000 platform (Illumina) to a minimum depth of 30 million reads per sample.
QC-passed reads were aligned to the human reference genome (hg19) using PRADA.^46 Transcript per million (TPM) values were determined using RSEM.^47 TPM values were normalized with the voom transformation.^48 Expression changes for each gene in treated cells compared to untreated controls was determined using the limma package^49 as log 2-transformed fold change and a multiple-testing adjusted p-value. Heatmap visualization was performed using R. Log 2-transformed fold changes were not scaled and were colored on a blue-red scale.
Differentially expressed genes (defined as log 2-fold change value greater than 1.5 or less than −1.5, and p-value less than 0.01) were input into Ingenuity Pathway Analysis (www.ingenuity.com), to identify a) enriched pathways, 2) upstream regulators, andd 3) downstream effectors. […] We considered an activation z-score of greater than [2] to be activated, and less than [−2] to be inhibited. Gene ontology term (GO-term) enrichment analysis was performed using the Database for Annotation, Visualization and Integrated Discovery (DAVID) v6.7 (david.abcc.ncifcrf.gov/).

[2] = tested on: H3K27Ac enhancer signal in PC9 cells; assay: H3K27Ac ChIP-Seq in PC9 cells; type: cell-based, human; details: seven days of treatment, vs DMSO
Description: RT112 and PC9 cells treated for seven days with vehicle, 1 μM BGJ398 and erlotinib (respectively), 100 nM THZ1, or BGJ398/erlotinib in combination with THZ1. H3K27Ac ChIP-Seq was performed using Abcam antibody (cat # AB4729, lot # GR183922-1) as previously described,^8 with minor modifications (cells were crosslinked for 20 min, Dynal magnetic beads (Sigma) were bound with 10 μg of the indicated antibody).
All ChIP-Seq data sets were aligned using bowtie 1.0.1 to build NCBI36/hg19 of the human genome with -p 4—best -k 2 -m 2—sam -1 40. Wiggle files for gene tracks were created using Macs 1.4.2 with options -w -S -space=50 to count reads in 50 bp bins.
Regions enriched in H3K27Ac were identified using SICER^51 with corresponding input DNA control, and parameters -t 1 (max 1 read per position), -w 200 (window size 200), -i 150 (fragment size), -g 200 (gap size 200; 1 window), -t 0.74 (interrogable genome fraction), -e 200 (e-value), -p 1e-9 (significance p value cutoff). […]
Density of H3K27Ac ChIP-Seq signal (FIG. 51F) was calculated using bamToGFF (github.com/BradnerLab/pipeline). Islands of H3K27Ac identified in RT112 BGJ398-treated cells or PC9 erlotinib-treated cells were treated as one bin (-m 1), reads were extended to be 200 bp (default) and the reads-per-million (-r) normalized density (-d) of reads was calculated therein.

[3] = tested on: signaling pathways in PC9 cells; assay: Western blot / immunoblot of signaling pathways in PC9 cells; type: cell-based; details: 24 hours, erlotinib 1 μM, THZ1 100 nM, alone or combined
Description: Cells were lysed in RIPA buffer (Roche) containing protease inhibitors (Roche) and Phosphatase Inhibitor Cocktails I and II (CalBioChem). Protein concentrations were determined using a Bradford assay (Bio-Rad). Proteins were separated by SDS gel electrophoresis using NuPAGE 4-12% Bis-Tris gels (Life Technologies) in MOPS buffer. Resolved protein was transferred to nitrocellulose membranes, blocked in 10% milk and probed with primary antibodies recognizing EGFR (2232S), p-EGFR (2234S), FGFR3 (4574S), p-FGFR (3471S), HER2/ERBB2 (2165), p-ERBB2 (2243S), STAT1 (9172), p-STAT1 (9167), STAT3 (4904S), p-STAT3 (9145S), AKT (9272S), p-AKT (4060P), ERK (4695S), p-ERK (4370S), FRA1 (5281S), CDK12 (11973) (all from Cell Signaling Technology), CDK7 (sc-723, Santa Cruz), actin (A5441, Sigma-Aldrich) and vinculin (V9131, Sigma-Aldrich) in 5% milk or 3% bovine serum albumin as recommended by the manufacturer. After incubation with the appropriate secondary antibody (Pierce anti-mouse IgG/IgM (31444, Thermo Scientific) and anti-rabbit IgG (31460, Thermo Scientific)), blots were imaged on film.
Western blots were used to characterize the signaling pathways in selected cell lines. The assays were performed at 24 hours under the following conditions: untreated, treated with 1 μM erlotinib, treated with 100 nM THZ1, or treated with a combination of erlotinib and THZ1, in PC9 and RT112 cells. These doses were also used in the colony formation assays and the RNAseq and ChIPseq experiments. […] However, it could be blocking the activation of downstream STAT3 targets. […] FGFR is known to be a bypass mechanism in PC9, but this was not seen with THZ1 treatment or with the combination treatment. […] This is unexpected, given that THZ1 should block CDK7-mediated RNAPII phosphorylation. This may be due to the dose or the time point assayed.

PC9 cells = assay: Apoptosis/cell death analysis (Annexin V/PI flow cytometry) in PC9 cells; type: cell-based; details: 48 hours; erlotinib 1 μM; compared to PC9 cells with control RNA guide
Description: 100,000 cells were seeded in 6-well plates, allowed to adhere overnight, and then incubated with media containing vehicle or drug as indicated for 24 or 48 hours. Cell death was quantified using the Alexa Fluor 488 Annexin V/Dead Cell Apoptosis kit for flow cytometry (Invitrogen), according to the manufacturer's protocol. All conditions were assayed in triplicate. Data were acquired using a BD LSRFortessa X-20 (BD Biosciences), and analyzed in FlowJo.

IL-6 = IL-6 in PC9 cell culture supernatants (Luminex cytokine assay, ELISA); type: cell-based; details: PC9 cells; erlotinib 1 μM, THZ1 100 nM; 24 and 72 hours
Description: A Luminex Multiplex Custom Cytokine assay was used to assay cytokines in RT112 and PC9 cell culture supernatants treated with vehicle, 1 μM BGJ398 or erlotinib respectively, 100 nM THZ1, or THZ1 in combination with BGJ398 or erlotinib, at 24 and 72 hours. Cytokines assayed for were: CCL2/MCP-1, CCL5/RANTES, CXLC5, IL-1 alpha and beta, IL-2, IL-4, IL-5, IL-6, IL-8, IL-10, IL-17a, GM-CSF, TNF-alpha, VEGF, INF-gamma. IL-6 was also assayed in cell culture supernatants using the Quantikine IL-6 ELISA kit (D6050, R&D Systems) as per the manufacturer's protocol.

[4] = tested on: RT112 bladder carcinoma cells (FGFR3-dependent); assay: Colony formation assay in RT112 cells; type: cell-based, human
Excerpt: Media (and drug) were replaced weekly.

[5] = tested on: PC9 cells (EGFR-dependent NSCLC); assay: Colony formation assay in PC9 cells; type: cell-based; details: 4 weeks, compared to THZ1 (FIG. 55B)
HER-2 dependent models = details: cited from earlier work

SMILES	gene expression (transcriptional programs) by RNAseq ([1]; erlotinib 1 μM, THZ1 100 nM, one or seven days)	gene expression of the top 200 up-regulated genes with erlotinib treatment ([1]; log2-normalized FPKM, two-tailed t-test)	H3K27Ac ChIP-Seq signal at enhancers [2]	FGFR activation [3]	p-STAT3 (STAT3 phosphorylation/activation) [3]	sensitivity to erlotinib (cell death) of CDK7 and CDK12-deficient PC9 cells (PC9 cells)	IL-6 levels in cell culture supernatants (IL-6)	enhancement of sensitivity to BGJ398 (colony formation) ([4]; 4 weeks, compared to THZ1 (FIG. 55D))	colony formation, transcription inhibitor alone or in combination with BGJ398 ([4]; one week, 24-well plate (FIG. 35))	enhancement of sensitivity to erlotinib (colony formation) [5]	sensitivity to lapatinib (HER-2 dependent models)
C#Cc1cccc(Nc2ncnc3cc(OCCOC)c(OCCOC)cc23)c1 [erlotinib]	transcriptionally distinct form the parental population; also recorded: up-regulated the expression of genes involved in pro-survival programs	significant increase in gene expression	significant increase in H3K27Ac signal	is activated; also recorded: activation of FGFR was also observed	increases	enhanced sensitivity to erlotinib	significantly increased	–	–	–	–
Cc1sc2c(c1C)C(c1ccc(Cl)cc1)=N[C@@H](CC(=O)OC(C)(C)C)c1nnc(C)n1-2 [JQ1]	–	–	–	–	–	–	–	did enhance sensitivity to BGJ398 in RT112, although less so than THZ1	modest results, even in combination	did not enhance sensitivity to erlotinib	enhance sensitivity to lapatinib
